Where two headings read alike, the source gives them in different places.
Experiments:
CRP = details: RA; upadacitinib 6 mg BID; cited from earlier work
[1] = tested on: IFNα cytokine receptor (JAK1/TYK2); assay: Human whole blood, IFNα-induced pSTAT3, lymphocytes; assay type: cell-based; details: Lymphocyte
Description: Blood was warmed to 37°C prior to use.
(§1) Then, 5 µL of PBS or cytokine was added to each well (5 µL/well; final, 10 U/mL EPO, 100 ng/mL G‐CSF, 10 ng/mL GM‐CSF, 5000 U/mL IFNα, 100 ng/mL IFNγ, 50 ng/mL IL‐2, 50 ng/mL IL‐3, 5 ng/mL IL‐4, 50 ng/mL IL‐6, 30 ng/mL IL‐7, 30 ng/mL IL‐10, 30 ng/mL IL‐12, 30 ng/mL IL‐13, 30 ng/mL IL‐15, 50 ng/mL IL‐21, 25 ng/mL IL‐23, 1000 ng/mL IL‐27) and incubated for 15 minutes. Anti‐cell surface antibodies were added 15 minutes prior to cytokine stimulation; anti‐CD14‐Pacific Blue (0.5 µL/well) to GM‐CSF, IFNγ, and TPO‐treated samples; anti‐CD3‐BV650 (0.5 µL/well) plus anti‐CD14‐Pacific Blue (0.5 µL/well) to IL‐6‐treated samples; and anti‐CD19‐BV421 (0.5 µL/well) plus anti‐CD14‐AF488 (0.5 µL/well) to IL‐13‐treated samples.
(§2) One more wash was done with staining buffer and all samples were finally suspended in 150 µL/well of the desired anti‐pSTAT antibodies at 1:150 dilution in staining buffer; anti‐pSTAT1‐AF647 in IFNγ‐treated samples; anti‐pSTAT1‐AF488 and anti‐pSTAT3‐AF647 in IFNα‐, IL‐6‐, and IL‐27‐treated samples; anti‐pSTAT3‐AF647 in G‐CSF‐, IL‐10‐, IL‐21‐, and IL‐23‐treated samples; anti‐pSTAT4‐AF647 in IL‐12‐treated samples; anti‐pSTAT5‐AF647 in EPO‐, GM‐CSF‐, IL‐2‐, IL‐3‐, IL‐7‐, IL‐15‐, and TPO‐treated samples; anti‐pSTAT5‐AF488 and anti‐pSTAT6‐AF647 in IL‐4‐treated samples; and anti‐pSTAT6‐AF647 in IL‐13‐treated samples.
(§3) The lymphocyte population was gated for pSTAT histogram analysis for IFNα‐, IL‐2‐, IL‐3‐, IL‐4‐, IL‐7‐, IL‐10‐, IL‐12‐, IL‐15‐, IL‐21‐, IL‐23‐, and IL‐27‐treated samples; granulocyte population for G‐CSF‐treated samples; CD14^+ cells for GM‐CSF‐, IFNγ‐, and TPO‐treated samples; CD3^+ cells and CD14^+ cells for IL‐6‐treated samples; CD14^+ cells and CD19^+ cells for IL‐13‐treated samples; all events (entire populations) for EPO‐treated cells. Background fluorescence was defined using unstimulated cells and a gate was placed at the foot of the peak to include ~0.5% gated population.
(§4) Histogram statistical analysis was performed using FACSDiva version 8.0.1 (BD Biosciences). Relative fluorescence unit (RFU), which measures the level of pSTAT, was calculated by multiplying the percent positive population and its mean fluorescence. Data from 11 compound concentrations (singlicate at each concentration) were normalized as a percentage of control, as shown in Equation 1:(1) %ofcontrol=100×A−B/C−B
(§5) A, RFU from wells containing compound and cytokine; B, RFU from wells without cytokine (minimum fluorescence); C, RFU from wells containing only cytokine (maximum fluorescence).
(§6) Inhibition curves and IC50 values were determined using Prism software (Version 7, GraphPad).

[2] = tested on: G-CSF cytokine receptor (JAK1/JAK2); assay: Human whole blood, G-CSF-induced pSTAT3, granulocytes; assay type: cell-based
Description: Blood was warmed to 37°C prior to use.
(§7) Then, 5 µL of PBS or cytokine was added to each well (5 µL/well; final, 10 U/mL EPO, 100 ng/mL G‐CSF, 10 ng/mL GM‐CSF, 5000 U/mL IFNα, 100 ng/mL IFNγ, 50 ng/mL IL‐2, 50 ng/mL IL‐3, 5 ng/mL IL‐4, 50 ng/mL IL‐6, 30 ng/mL IL‐7, 30 ng/mL IL‐10, 30 ng/mL IL‐12, 30 ng/mL IL‐13, 30 ng/mL IL‐15, 50 ng/mL IL‐21, 25 ng/mL IL‐23, 1000 ng/mL IL‐27) and incubated for 15 minutes. […]
as §3
(§8) Histogram statistical analysis was performed using FACSDiva version 8.0.1 (BD Biosciences). Relative fluorescence unit (RFU), which measures the level of pSTAT, was calculated by multiplying the percent positive population and its mean fluorescence. […]
as §6

[3] = human; upadacitinib 15 mg QD; cited from earlier work
[4] = tested on: IL-27 cytokine receptor (JAK1/JAK2, JAK1/TYK2); assay: Human whole blood, IL-27-induced pSTAT3, lymphocytes; assay type: cell-based; details: Lymphocyte
Description: Blood was warmed to 37°C prior to use.
as §1, §2, §3, §4, §5, §6

[5] = tested on: IFNγ cytokine receptor (JAK1/JAK2); assay: Human whole blood, IFNγ-induced pSTAT1, CD14+ cells; assay type: cell-based; details: for IC50: Homo sapiens
Description: Blood was warmed to 37°C prior to use.
as §1, §2, §3, §4, §5, §6

[6] = tested on: IL-27 cytokine receptor (JAK1/JAK2, JAK1/TYK2); assay: Human whole blood, IL-27-induced pSTAT1, lymphocytes; assay type: cell-based; details: Lymphocyte
Description: Blood was warmed to 37°C prior to use.
(§9) Anti‐cell surface antibodies were added 15 minutes prior to cytokine stimulation; anti‐CD14‐Pacific Blue (0.5 µL/well) to GM‐CSF, IFNγ, and TPO‐treated samples; anti‐CD3‐BV650 (0.5 µL/well) plus anti‐CD14‐Pacific Blue (0.5 µL/well) to IL‐6‐treated samples; and anti‐CD19‐BV421 (0.5 µL/well) plus anti‐CD14‐AF488 (0.5 µL/well) to IL‐13‐treated samples.
as §3, §4, §5, §6

[7] = tested on: GM-CSF cytokine receptor (JAK2/JAK2); assay: Human whole blood, GM-CSF-induced pSTAT5, CD14+ cells; assay type: cell-based; details: Homo sapiens
Description: Blood was warmed to 37°C prior to use.
as §1, §2, §3, §4, §5, §6

[8] = tested on: IL-4 cytokine receptor (JAK1/JAK3); assay: Human whole blood, IL-4-induced pSTAT5, lymphocytes; assay type: cell-based; details: Lymphocyte
Description: Blood was warmed to 37°C prior to use.
as §7, §3, §8, §6

[9] = tested on: IL-2 cytokine receptor (JAK1/JAK3); assay: Human whole blood, IL-2-induced pSTAT5, lymphocytes; assay type: cell-based; details: Lymphocyte
Description: Blood was warmed to 37°C prior to use.
as §1, §2, §3, §4, §5, §6

[10] = tested on: IL-4 cytokine receptor (JAK1/JAK3); assay: Human whole blood, IL-4-induced pSTAT6, lymphocytes; assay type: cell-based; details: Lymphocyte
Description: Blood was warmed to 37°C prior to use.
as §1, §2, §3, §4, §5, §6

in vitro = details: both, human, pooled human plasma
NK cell counts = details: RA; upadacitinib 6 mg BID; week 12; cited from earlier work
[11] = tested on: IL-3 cytokine receptor (JAK2/JAK2); assay: Human whole blood, IL-3-induced pSTAT5, lymphocytes; assay type: cell-based; details: Homo sapiens, Lymphocyte
Description: Blood was warmed to 37°C prior to use.
as §1, §2, §3, §4, §5, §6

[12] = tested on: IL-6 cytokine receptor (JAK1/JAK2, JAK1/TYK2); assay: Human whole blood, IL-6-induced pSTAT1, CD14+ cells; assay type: cell-based
Description: Blood was warmed to 37°C prior to use.
as §9, §3, §4, §5, §6

[13] = tested on: IL-6 cytokine receptor (JAK1/JAK2, JAK1/TYK2); assay: Human whole blood, IL-6-induced pSTAT3, CD3+ cells; assay type: cell-based
Description: Blood was warmed to 37°C prior to use.
as §9, §3, §4, §5, §6

[14] = tested on: IFNα cytokine receptor (JAK1/TYK2); assay: Human whole blood, IFNα-induced pSTAT1, lymphocytes; assay type: cell-based; details: for IC50: Homo sapiens, Lymphocyte
Description: Blood was warmed to 37°C prior to use.
as §1, §2, §3, §4, §5, §6

[15] = tested on: IL-21 cytokine receptor (JAK1/JAK3); assay: Human whole blood, IL-21-induced pSTAT3, lymphocytes; assay type: cell-based; details: Lymphocyte
Description: Blood was warmed to 37°C prior to use.
as §1, §2, §3, §4, §5, §6

[16] = tested on: IL-15 cytokine receptor (JAK1/JAK3); assay: Human whole blood, IL-15-induced pSTAT5, lymphocytes; assay type: cell-based; details: for IC50: Homo sapiens, Lymphocyte
Description: Blood was warmed to 37°C prior to use.
as §1, §2, §3, §4, §5, §6

[17] = tested on: IL-10 cytokine receptor (JAK1/TYK2); assay: Human whole blood, IL-10-induced pSTAT3, lymphocytes; assay type: cell-based; details: Lymphocyte
Description: Blood was warmed to 37°C prior to use.
as §1, §2, §3, §4, §5, §6

[18] = tested on: TPO cytokine receptor (JAK2/JAK2); assay: Human whole blood, TPO-induced pSTAT5, CD14+ cells; assay type: cell-based; details: Homo sapiens
Description: Blood was warmed to 37°C prior to use.
as §1, §2, §3, §4, §5, §6

[19] = tested on: IL-12 cytokine receptor (JAK2/TYK2); assay: Human whole blood, IL-12-induced pSTAT4, lymphocytes; assay type: cell-based; details: for IC50: Homo sapiens, Lymphocyte
Description: Blood was warmed to 37°C prior to use.
as §1, §2, §3, §4, §5, §6

[20] = unbound, Cav × fu; upadacitinib 15 mg QD
[21] = tested on: EPO cytokine receptor (JAK2/JAK2); assay: Human whole blood spiked with CD34+-derived erythroid progenitor cells, EPO-induced pSTAT5; assay type: cell-based; details: for IC50: Homo sapiens, Erythroid progenitor cell
Description: CD34^+ cells were then harvested, washed once with Dulbecco's (D)‐PBS, and suspended at 0.5 x 10^6 cells/mL in human whole blood to be used in the EPO stimulation assay.
Blood was warmed to 37°C prior to use.
Background fluorescence was defined using unstimulated cells and a gate was placed at the foot of the peak to include ~0.5% gated population.
as §4, §5, §6

[22] = phase 3 RA studies; cited from earlier work
[23] = tested on: IL-13 cytokine receptor (JAK1/JAK2, JAK1/TYK2); assay: Human whole blood, IL-13-induced pSTAT6, CD14+ cells; assay type: cell-based
Description: Blood was warmed to 37°C prior to use.
as §9, §3, §4, §5, §6

[24] = tested on: IL-6 cytokine receptor (JAK1/JAK2, JAK1/TYK2); assay: Human whole blood, IL-6-induced pSTAT1, CD3+ cells; assay type: cell-based; details: for IC50: Homo sapiens
Description: Blood was warmed to 37°C prior to use.
as §1, §2, §3, §4, §5, §6

[25] = tested on: IL-23 cytokine receptor (JAK2/TYK2); assay: Human whole blood, IL-23-induced pSTAT3, lymphocytes; assay type: cell-based; details: Lymphocyte
Description: Blood was warmed to 37°C prior to use.
as §7, §3, §8, §6

[26] = tested on: IL-7 cytokine receptor (JAK1/JAK3); assay: Human whole blood, IL-7-induced pSTAT5, lymphocytes; assay type: cell-based; details: Lymphocyte
Description: Blood was warmed to 37°C prior to use.
as §1, §2, §3, §4, §5, §6

[27] = tested on: IL-13 cytokine receptor (JAK1/JAK2, JAK1/TYK2); assay: Human whole blood, IL-13-induced pSTAT6, CD19+ cells; assay type: cell-based
Description: Blood was warmed to 37°C prior to use.
as §9, §3, §4, §5, §6

For CC[C@@H]1CN(C(=O)NCC(F)(F)F)C[C@@H]1c1cnc2cnc3[nH]ccc3n12 [Upadacitinib], the “reduction of CRP levels from baseline to week 12” value (CRP) is listed as -8.8 mg/L, the IC50 ([1]; read-out: IC50, IFNα, pSTAT3) is listed as 19 nM and the IC50 ([1]; read-out: IC50,u, IFNα, pSTAT3) is listed as 9.2 nM. For the same molecule, the IC50 ([2]; read-out: IC50, G-CSF, pSTAT3) was 78 nM, the IC50 ([2]; read-out: IC50,u, G-CSF, pSTAT3) was 38 nM and the Cav [3] was 49 nM. The IC50 ([4]; read-out: IC50, IL-27, pSTAT3) was 44 nM, the IC50 ([4]; read-out: IC50,u, IL-27, pSTAT3) was 21 nM and the “LogIC50, IFNγ induced pSTAT1, single experiment” value [5] was -7.002 log[M]. The IC50 ([5]; read-out: IC50, IFNγ induced pSTAT1, single experiment) was 99.6 nM, the IC50 ([5]; read-out: IC50, IFNγ, pSTAT1) was 109 nM and the IC50 ([5]; read-out: IC50,u, IFNγ, pSTAT1) was 53 nM. It also gave an IC50 ([6]; read-out: IC50, IL-27, pSTAT1) of 52 nM, an IC50 ([6]; read-out: IC50,u, IL-27, pSTAT1) of 25 nM and an IC50 ([7]; read-out: IC50, GM-CSF, pSTAT5) of 782 nM. It also gave an IC50 ([7]; read-out: IC50,u, GM-CSF, pSTAT5) of 377 nM, an IC50 ([8]; read-out: IC50, IL-4, pSTAT5) of 8.2 nM and an IC50 ([8]; read-out: IC50,u, IL-4, pSTAT5) of 4 nM. It also gave an IC50 ([9]; read-out: IC50, IL-2, pSTAT5) of 50 nM, an IC50 ([9]; read-out: IC50,u, IL-2, pSTAT5) of 24 nM and an IC50 ([10]; read-out: IC50, IL-4, pSTAT6) of 77 nM. The IC50 ([10]; read-out: IC50,u, IL-4, pSTAT6) was 37 nM, the fraction unbound at 6 h, 1 μmol/L (in vitro) was 0.56 and the “change from baseline in NK cell counts” value (NK cell counts) was “approximately −50 cells/mm^3”. It also gave an IC50 ([11]; read-out: IC50, IL-3, pSTAT5) of 326 nM, an IC50 ([11]; read-out: IC50,u, IL-3, pSTAT5) of 158 nM and an IC50 ([12]; read-out: IC50, IL-6, pSTAT1, CD14+ cells) of 26 nM. The IC50 ([12]; read-out: IC50,u, IL-6, pSTAT1, CD14+ cells) was 13 nM, the IC50 ([13]; read-out: IC50, IL-6, pSTAT3, CD3+ cells) was 152 nM and the IC50 ([13]; read-out: IC50,u, IL-6, pSTAT3, CD3+ cells) was 73 nM. For the same molecule, the “LogIC50, IFNα induced pSTAT1, single experiment” value ([14]; Figure S1B, Donor 256, Exp 1) was -7.685 log[M], the IC50 ([14]; read-out: IC50, IFNα induced pSTAT1, single experiment) was 20.7 nM and the IC50 ([14]; read-out: IC50, IFNα, pSTAT1) was 21 nM. For the same molecule, the IC50 ([14]; read-out: IC50,u, IFNα, pSTAT1) was 10 nM, the IC50 ([15]; read-out: IC50, IL-21, pSTAT3) was 51 nM and the IC50 ([15]; read-out: IC50,u, IL-21, pSTAT3) was 25 nM. The “LogIC50, IL-15 induced pSTAT5, single experiment” value [16] was -7.157 log[M], the IC50 ([16]; read-out: IC50, IL-15, pSTAT5) was 64 nM and the IC50 ([16]; read-out: IC50, IL-15 induced pSTAT5, single experiment) was 69.7 nM. For the same molecule, the IC50 ([16]; read-out: IC50,u, IL-15, pSTAT5) was 31 nM, the IC50 ([17]; read-out: IC50, IL-10, pSTAT3) was 90 nM and the IC50 ([17]; read-out: IC50,u, IL-10, pSTAT3) was 43 nM. The IC50 ([18]; read-out: IC50, TPO, pSTAT5) was 297 nM, the IC50 ([18]; read-out: IC50,u, TPO, pSTAT5) was 143 nM and the “LogIC50, IL-12 induced pSTAT4, single experiment” value [19] was -6.953 log[M]. For the same molecule, the IC50 ([19]; read-out: IC50, IL-12, pSTAT4) was 145 nM, the IC50 ([19]; read-out: IC50, IL-12 induced pSTAT4, single experiment) was 112 nM and the IC50 ([19]; read-out: IC50,u, IL-12, pSTAT4) was 70 nM. For the same molecule, the “Cav,u” value [20] was 27.4 nM, the “LogIC50, EPO induced pSTAT5, single experiment” value [21] was -6.909 log[M] and the IC50 ([21]; read-out: IC50, EPO induced pSTAT5, single experiment) was 123 nM. For the same molecule, the IC50 ([21]; read-out: IC50, EPO, pSTAT5) was 174 nM, the IC50 ([21]; read-out: IC50,u, EPO, pSTAT5) was 84 nM and the herpes zoster occurrence [22] was “reported”. The IC50 ([23]; read-out: IC50, IL-13, pSTAT6, CD14+ cells) was 126 nM, the IC50 ([23]; read-out: IC50,u, IL-13, pSTAT6, CD14+ cells) was 61 nM and the “LogIC50, IL-6 induced pSTAT1 (CD3+ cells), single experiment” value [24] was -7.893 log[M]. It also gave an IC50 ([24]; read-out: IC50, IL-6, pSTAT1, CD3+ cells) of 12 nM, an IC50 ([24]; read-out: IC50, IL-6 induced pSTAT1 (CD3+ cells), single experiment) of 12.8 nM and an IC50 ([24]; read-out: IC50,u, IL-6, pSTAT1, CD3+ cells) of 5.9 nM. For the same molecule, the IC50 ([25]; read-out: IC50, IL-23, pSTAT3) was 242 nM, the IC50 ([25]; read-out: IC50,u, IL-23, pSTAT3) was 117 nM and the IC50 ([26]; read-out: IC50, IL-7, pSTAT5) was 101 nM. For the same molecule, the IC50 ([26]; read-out: IC50,u, IL-7, pSTAT5) was 49 nM, the IC50 ([27]; read-out: IC50, IL-13, pSTAT6, CD19+ cells) was 72 nM and the IC50 ([27]; read-out: IC50,u, IL-13, pSTAT6, CD19+ cells) was 35 nM.
